{"source": "patent US10995363B2", "about": "“Nucleotide analogs” (ABBOTT MOLECULAR INC., priority 2013, dated 2021)", "key": {"[1]": {"biological_target": "T1, Therminator II DNA polymerase (Thermococcus sp., UniProt Q56366, A485L/D141A/E143A/Y409V)", "T1 construct": "purchased New England BioLabs", "T1 sequence (Q56366 whole entry D141A/E143A/Y409V/A485L)": "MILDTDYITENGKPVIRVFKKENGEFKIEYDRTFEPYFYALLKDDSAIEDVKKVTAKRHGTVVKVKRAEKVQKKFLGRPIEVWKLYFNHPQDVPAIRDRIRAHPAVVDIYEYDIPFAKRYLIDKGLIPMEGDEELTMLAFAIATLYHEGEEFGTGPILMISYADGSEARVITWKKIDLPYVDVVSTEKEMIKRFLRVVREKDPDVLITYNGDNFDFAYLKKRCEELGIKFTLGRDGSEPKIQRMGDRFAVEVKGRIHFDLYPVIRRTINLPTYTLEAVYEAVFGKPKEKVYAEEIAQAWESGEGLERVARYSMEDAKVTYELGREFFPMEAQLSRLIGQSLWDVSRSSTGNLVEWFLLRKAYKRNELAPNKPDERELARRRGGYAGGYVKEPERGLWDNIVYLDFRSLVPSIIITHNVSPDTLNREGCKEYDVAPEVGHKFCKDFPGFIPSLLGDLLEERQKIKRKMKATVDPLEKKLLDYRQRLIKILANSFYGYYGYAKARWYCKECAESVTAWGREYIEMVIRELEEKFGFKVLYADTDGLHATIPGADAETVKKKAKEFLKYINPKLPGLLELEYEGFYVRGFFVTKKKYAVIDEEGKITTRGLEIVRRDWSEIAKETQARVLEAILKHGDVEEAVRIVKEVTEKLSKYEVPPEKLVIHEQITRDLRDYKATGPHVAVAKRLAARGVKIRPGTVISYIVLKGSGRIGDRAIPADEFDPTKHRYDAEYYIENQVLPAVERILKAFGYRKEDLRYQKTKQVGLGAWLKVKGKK", "assay": "Polymerase extension assay: incorporation of 3′-O-propargyl-dNTP at the 3′ end of a primer on KRAS template", "assay_type": "biochemical, Thermococcus sp. 9∘N", "details": "2 mM MnCl2, KRAS template, 35 cycles, size analysis by gel electrophoresis", "method": "During the development of embodiments of the technology provided herein, experiments were conducted to assess the incorporation of 3′-O-propargyl-dNTPs into a nucleic acid by a polymerase. In particular, experiments were conducted to evaluate the accurate incorporation of 3′-O-propargyl-dNTPs into a nucleic acid and to evaluate the terminating activity of the 3′-O-propargyl-dNTPs. To assess these characteristics of the nucleotide analogs provided herein, polymerase extension assays were conducted using a template nucleic acid having a sequence from human KRAS (e.g., KRAS exon 2 and flanking intron sequences) and a complementary primer (Table 2).\nTo test incorporation of a 3′-O-propargyl-dTTP into a nucleic acid, a polymerase extension reaction mix was assembled comprising 20 mM Tris-HCl, 10 mM (NH4)SO4, 10 mM KCl, 2 mM MnCl2, 0.1% Triton X-100, 200 μmol 3′-O-propargyl-dTTP, 6.25 μmol of primer R_ke2_trP1_T_bio (SEQ ID NO: 2), and 2 units of Therminator II DNA polymerase (New England BioLabs) in a 25-μl final reaction volume. A volume of 0.5 μmol of the KRAS template (SEQ ID NO: 1) was used as template (Table 2). The polymerase extension reaction was performed using a temperature cycling profile comprising exposing the reaction to a temperature of 95° C. for 2 minutes followed by 35 cycles of 95° C. for 15 seconds, 55° C. for 25 seconds, and 65° C. for 35 seconds.\n(§1) After the polymerase extension reaction, 1 μl of the reaction mix was used directly for nucleic acid size analysis by gel electrophoresis (e.g., using an Agilent 2100 Bioanalyzer and High Sensitivity DNA Assay Chip).\nAdditional polymerase extension experiments were performed using the reaction conditions described above and replacing the 3′-O-propargyl-dTTP and the primer R_ke2_trP1_T_bio with 3′-O-propargyl-dATP and the primer R_ke2_trP1_A bio (SEQ ID NO: 3); 3′-O-propargyl-dCTP and the primer R_ke2_trP1_C bio (SEQ ID NO: 5); and 3′-O-propargyl dGTP and the primer R_ke2_trP1_G bio (SEQ ID NO: 4)."}, "[2]": {"biological_target": "T1, Therminator II DNA polymerase", "assay": "Ladder fragment generation with natural dNTPs and one 3′-O-propargyl-dNTP", "assay_type": "biochemical, Thermococcus sp. 9∘N", "details": "natural dNTPs plus one 3′-O-propargyl-dNTP, KRAS template, 50 cycles", "method": "During the development of embodiments of the technology provided herein, experiments were conducted to assess using the nucleotide analogs of the present technology to generate nucleic acid fragments that terminate at base-specific positions. In particular, reaction mixtures were produced and tested that included both natural dNTPs and each of the 3′-O-propargyl-dNTPs individually.\nTo test the fragment generation by 3′-O-propargyl-dTTP, a DNA fragment generation reaction mix was prepared comprising 20 mM Tris-HCl, 10 mM (NH4)SO4, 10 mM KCl, 2 mM MnCl2, 0.1% Triton X-100, 1000 μmol dATP, 1000 μmol dCTP, 1000 μmol dGTP, 1000 μmol dTTP, 200 μmol 3′-O-propargyl-dTTP, 6.25 μmol of primer R_ke2_trP1_T_bio (SEQ ID NO: 2), and 2 units of THERMINATOR II DNA polymerase (New England BioLabs) in a 25-μl final reaction volume. A volume of 0.5 μmol of the KRAS template (SEQ ID NO: 1) was used as template. The polymerase extension reaction was performed using a temperature cycling profile comprising exposing the reaction to a temperature of 95° C. for 2 minutes followed by 50 cycles of 95° C. for 15 seconds, 55° C. for 25 seconds, and 65° C. for 35 seconds.\nas §1\nAdditional polymerase extension experiments were performed using the reaction conditions described above and replacing the 3′-O-propargyl-dTTP with 3′-O-propargyl-dATP, 3′-O-propargyl-dCTP, or 3′-O-propargyl dGTP."}}, "data": [{"smiles": "C#CCO[C@H]1C[C@H](n2cc(C)c(=O)[nH]c2=O)O[C@@H]1COP(=O)(O)OP(=O)(O)OP(=O)(O)O", "note": "[3′-O-propargyl-dTTP, 3′-O-propargyl-2′-deoxythymidine-5′-triphosphate]", "values": [{"measurement": "amounts of the two populations of nucleic acids (primer length vs primer plus one base)", "setting": "[1]", "result": "approximately equal"}, {"measurement": "incorporation at the 3′ end of the primer", "setting": "[1]", "result": "successful incorporation"}, {"measurement": "generation of nucleic acid fragments terminated at base-specific positions", "setting": "[2]", "result": "generated a population of nucleic acid fragments having a range of sizes corresponding to the expected lengths"}]}]}
